Patent EP0603240B1, “SAFENING HERBICIDAL PYRAZOLYLSULFONYLUREAS” (priority 1991, dated 1993)
Read-outs that look alike come from different tables or passages of the source.

Key:
[1] = system: Giant foxtail (Setaria fabergi); experiment: Example 23, Procedure II: Antidote Nos. 15 and 17-21 against Herbicide No. 1, 13 days after application; assay type: in vivo; settings: Setaria, 312 h
Method: (§1) Containers were filled and compacted with a fumigated silt loam top soil to a depth of about 1.3 cm from the top of the container. A first container was designated as an untreated control, a second container was designated as a herbicide control, and a third container was designated as a herbicide + antidote test container. Each of the containers was seeded with a crop species. A measured amount of herbicide dispersed or dissolved in acetone was applied to a measured quantity of soil. To this same quantity of soil treated with herbicide, there was added a measured amount of antidote dispersed or dissolved in acetone. The quantity of soil treated with the herbicide and antidote was thoroughly mixed to incorporate the herbicide and antidote in the soil uniformly. The seed bed in the third container of soil was covered with the soil treated with the herbicide and antidote and the container was leveled. For each test series, the seed beds of the first and second containers were likewise covered by soil layers. the cover layer of the first container was not treated with herbicide or antidote.
(§2) The containers were then placed on a bench in a greenhouse and sub-irrigated as required for the duration of the test. […] Plant response is measured in terms of percent injury. Antidote efficacy is indicated as the difference in plant injury by the herbicide(s) without the antidote and with the antidote.
(§3) This procedure is the same as Procedure I, but modified in the manner that after incorporation of the chemicals (herbicide and antidote) the containers with the covered seedbed were treated with an initial overhead irrigation equivalent to 0.6 cm rainfall, then subsequently sub-irrigated as required on greenhouse benches.
(§4) In other greenhouse tests, using Procedure II described above, the safening efficacy of Antidote Nos. 15 and 17-21 was evaluated against Herbicide No. 1 in corn in the presence of Giant foxtail (Setaria fabergi) and Velvetleaf (Abutilon theophrasti) as representative annual monocotyledonous and dicotyledonous weeds, respectively.
(§5) Test results are shown in Tables 23A and 23B wherein the indicated plant inhibition represents the average of duplicate replications, with observations being made thirteen (13) days after application of the chemicals. Giant foxtail and Velvetleaf are represented by the symbols "GFT" and "VL", respectively. The data in Table 23A show the test results using the antidotes at 2.24 kg/ha, whereas in Table 23B, the antidotal rate was reduced to 0.56 kg/ha.

[2] = system: velvetleaf (Abutilon theophrasti); experiment: as above; assay type: in vivo; settings: Abutilon theophrasti, 312 h
Method: as §1, §2, §3, §4, §5

corn [3] = experiment: as above; assay type: in vivo; settings: Zea mays, 312 h, no antidote, 13 days after application; for inhibition at 140 g/ha: Herb. No. 1 0.14 Kg/Ha; for inhibition at 280 g/ha: Herb. No. 1 0.28 Kg/Ha; for inhibition at 560 g/ha: Herb. No. 1 0.56 Kg/Ha; for inhibition at 1120 g/ha: Herb. No. 1 1.12 Kg/Ha
Method: as §1, §2, §3, §4, §5

corn [4] = experiment: Example 2, Procedure II: dichloroacetamide antidotes against Herbicide No. 1; assay type: in vivo; settings: Herb. No. 1 0.14 kg/ha, no antidote
Method: as §1, §2, §3
In this example, a plurality of dichloroacetamide antidotes were tested for their safening efficacy against Herbicide No. 1 in corn, using Procedure II. In this test the weed was velvetleaf; barnyardgrass was not present in this test.

corn [5] = experiment: Example 25, greenhouse preemergence test: Antidote Nos. 1 and 2 against Herbicide Nos. 1-3; assay type: in vivo, Corn (Pioneer 3424 variety); settings: Zea mays, pre-emergence, Preemergence, no antidote
How it was run: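 Greenhouse preemergence application; herbicides as wettable powders, dichlormid as emulsifiable concentrate, naphthalic anhydride as conventional seed coating on corn before planting. Rates in g active ingredient/ha; naphthalic anhydride amount not quantified. Corn injury scored as percent growth inhibition.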

corn [6] = experiment: Example 4, Procedure I: Antidote Nos. 15 and 16 against Herbicide No. 1; assay type: in vivo; settings: no antidote, average of two replicates
Method: as §1, §2
This example describes tests with Antidote Nos. 15 and 16 to safen Herbicide No. 1 according to Procedure I using corn and the weeds barnyardgrass and velvetleaf as the test plants.

corn [7] = experiment: Example 11, Procedure II: Herbicide No. 1 + metazachlor (No. 14) with antidotes; assay type: in vivo; settings: no antidote
Method: as §1, §2, §3
In this example, yet another α-chloroacetanilide co-herbicide, metazachlor (Herbicide No. 14) was combined with Herbicide No. 1 for investigation of the effect of various safeners on that composition. Metazachlor is the active ingredient in the commercial herbicide BUTISAN® S, used here as a 500 g/L formulation.

[8] = system: barnyardgrass (Echinochloa crusgalli); experiment: Example 8, Procedure II: Herbicide No. 1 + butachlor (No. 9) with antidotes; assay type: in vivo
How it was run: (§6)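 Herbicide No. 1 plus butachlor, with or without antidote, applied in acetone and mixed into a soil layer covering corn seed beds, with weeds barnyardgrass and velvetleaf. Greenhouse test with an initial 0.6 cm overhead irrigation, then sub-irrigation. Percent injury was scored, and antidote efficacy taken as the injury difference with and without antidote.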

[9] = system: velvetleaf (Abutilon theophrasti); experiment: as above; assay type: in vivo
How it was run: as §6

corn [10] = experiment: as above; assay type: in vivo
How it was run: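 Corn sown in silt loam and covered with soil pre-mixed with acetone-applied Herbicide No. 1 plus butachlor, with or without antidote. Given 0.6 cm overhead irrigation, then sub-irrigated in greenhouse; antidote effect is percent injury without minus with antidote.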

[11] = read-out: % Inhibition Corn, Table 23A
[12] = read-out: % Inhibition Corn, Table 23B
[13] = Herbicide No.1 0.56 kg/ha alone
[14] = Herbicide No.1 0.14 + No.9 2.24 kg/ha, no antidote
[15] = Herbicide No.1 0.14 kg/ha alone
[16] = Herbicide No.1 0.56 + No.9 (butachlor) 2.24 kg/ha, no antidote

**Q.** What does the source list for `COC(=O)c1c(Cl)nn(C)c1S(=O)(=O)NC(=O)Nc1nc(OC)cc(OC)n1` [Herbicide No. 1]?
**A.** inhibition at 140 g/ha ([1]; read-out: % Inhibition GFT, Table 23A, Herb. No. 1 0.14 Kg/Ha, no antidote): 25%; inhibition at 280 g/ha ([1]; read-out: % Inhibition GFT, Table 23A, Herb. No. 1 0.28 Kg/Ha, no antidote): 35%; inhibition at 560 g/ha ([1]; read-out: % Inhibition GFT, Table 23A, Herb. No. 1 0.56 Kg/Ha, no antidote): 60%; inhibition at 1120 g/ha ([1]; read-out: % Inhibition GFT, Table 23A, Herb. No. 1 1.12 Kg/Ha, no antidote): 80%; inhibition at 140 g/ha ([1]; read-out: % Inhibition GFT, Table 23B, Herb. No. 1 0.14 Kg/Ha, no antidote): 30%; inhibition at 280 g/ha ([1]; read-out: % Inhibition GFT, Table 23B, Herb. No. 1 0.28 Kg/Ha, no antidote): 30%; inhibition at 560 g/ha ([1]; read-out: % Inhibition GFT, Table 23B, Herb. No. 1 0.56 Kg/Ha, no antidote): 60%; inhibition at 1120 g/ha ([1]; read-out: % Inhibition GFT, Table 23B, Herb. No. 1 1.12 Kg/Ha, no antidote): 70%; inhibition at 140 g/ha ([2]; read-out: % Inhibition VL, Table 23A, Herb. No. 1 0.14 Kg/Ha, no antidote): 90%; inhibition at 280 g/ha ([2]; read-out: % Inhibition VL, Table 23A, Herb. No. 1 0.28 Kg/Ha, no antidote): 90%; inhibition at 560 g/ha ([2]; read-out: % Inhibition VL, Table 23A, Herb. No. 1 0.56 Kg/Ha, no antidote): 95%; inhibition at 1120 g/ha ([2]; read-out: % Inhibition VL, Table 23A, Herb. No. 1 1.12 Kg/Ha, no antidote): 95%; inhibition at 140 g/ha ([2]; read-out: % Inhibition VL, Table 23B, Herb. No. 1 0.14 Kg/Ha, no antidote): 85%; inhibition at 280 g/ha ([2]; read-out: % Inhibition VL, Table 23B, Herb. No. 1 0.28 Kg/Ha, no antidote): 95%; inhibition at 560 g/ha ([2]; read-out: % Inhibition VL, Table 23B, Herb. No. 1 0.56 Kg/Ha, no antidote): 90%; inhibition at 1120 g/ha ([2]; read-out: % Inhibition VL, Table 23B, Herb. No. 1 1.12 Kg/Ha, no antidote): 90%; inhibition at 140 g/ha (corn [3]; [11]): 15%; inhibition at 280 g/ha (corn [3]; [11]): 25%; inhibition at 560 g/ha (corn [3]; [11]): 50%; inhibition at 1120 g/ha (corn [3]; [11]): 65%; inhibition at 140 g/ha (corn [3]; [12]): 10%; inhibition at 280 g/ha (corn [3]; [12]): 25%; inhibition at 560 g/ha (corn [3]; [12]): 40%; inhibition at 1120 g/ha (corn [3]; [12]): 60%; % Injury Corn (corn [4]): 10%; inhibition at 0.25 g/ha (corn [5]; herbicide alone 0.25 G/ha, read-out: % Inhibition Corn): 22.3%; inhibition at 0.74 g/ha (corn [5]; herbicide alone 0.74 G/ha): 32.3%; inhibition at 2.5 g/ha (corn [5]; herbicide alone 2.5 G/ha): 49.9%; % Injury Corn (corn [6]; Herb. No. 1 4.48 kg/ha): 85%; % Injury Corn (corn [6]; Herb. No. 1 6.72 kg/ha): 90%; % Injury Corn (corn [7]; [13]): 65%; % Injury Corn (corn [7]; Herbicide No.1 1.12 kg/ha alone): 65%; % Injury BYG [8, 14]: 100%; % Injury BYG [8, 15]: 55%; % Injury BYG [8, 16]: 100%; % Injury BYG [8, 13]: 93%; % Injury VL [9, 14]: 70%; % Injury VL [9, 15]: 70%; % Injury VL [9, 16]: 85%; % Injury VL [9, 13]: 85%; % Injury Corn (corn [10]; [14]): 25%; % Injury Corn (corn [10]; [15]): 10%; % Injury Corn (corn [10]; [16]): 65%; % Injury Corn (corn [10]; [13]): 60%
